Columns and labels:
[1] = system: mesoderm-related genes (MSGN1, T, MIXL1 and NODAL); assay: Quantitative PCR for expression of mesoderm-related genes under PFCD condition; type: cell-based, human; conditions: IMR90-1; for expression level of NODAL / expression of MSGN1, T and MIXL1: 1 μM XAV939, 0.3 μM A419259, 10 μM AG1478, 3 μM KY03-I, day 3 to day 4, mRNA on day 4, FIG. 3f
Protocol: A human iPS cell line (IMR90-1 cultured on MEF feeder) was cultured in PFCD culture media, to which 2 μM CHIR99021 or 0.3 μM PMA or the both (CHIR99021+PMA) were added for early phase of cardiac differentiation (day 0 to day 2). On day 2, mRNA was extracted the cultured cells and analyzed by quantitative PCR for the expression of mesoderm-related genes (MSGN1, T, MIXL1 and NODAL) (FIG. 3e). As a control, cells were cultured similarly, but with DMSO in place of the test compounds. The gene expression level in the control cells was assigned to one. […] In contrast, the expression of the genes was reduced when PMA was added to the culture. However, the reduction in gene expression by PMA was counteracted and reversed when CHIR99021 was added in combination with PMA (in accordance with the optimal PFCD condition).
A human iPS cell line (IMR90-1 from culture on MEF feeder) was cultured in PFCD media with one of 1 μM XAV939, 0.3 μM A419259, 10 μM AG1478 or 3 μM KY03-I, or all of them (XAV939+A419259+AG1478+KY03-I) in late phase of cardiac differentiation (day 3 to day 4). On day 4, mRNA was extracted from the cultured cells and analyzed by quantitative PCR for the expression of mesoderm-related genes (MSGN1, T, MIXL1 and NODAL) (FIG. 3f).

[2] = system: monkey ES cell line transfected with an αMHC promoter-driven GFP gene; assay: Chemical screening: GFP fluorometry for cardiac differentiation of monkey ES cells; type: cell-based, cynomolgus monkey; conditions: for intensity of GFP fluorescence relative to control culture (KY02111 only, assigned to one): GFP fluorometry day 9; for cardiac differentiation (screening conclusion): under appropriate conditions, Table 1; for increase of cardiac differentiation: 1 to 3 μM in late phase, alone or in combination with KY02111 (10 μM in late phase), FIG. 1e
Protocol: Pluripotent stem cells were cultured in culture media to which the test compounds were added in different concentrations (0.3 μM, 1 μM, 3 μM and 10 μM) in early phase and late phase of differentiation of the cells. Cells from the culture were subjected to GFP fluorometry in accordance with the cardiac differentiation protocol shown in FIG. 1a. Besides the test compounds, 10 μM KY02111 was included in the culture media for the late phase differentiation. The intensity of GFP fluorescence determined in the cells from the control culture, which was cultured with no test compound other than KY02111, was assigned to one.
The scheme of chemical screening is illustrated in FIG. 1a. Compounds were screened for the ability of increasing GFP fluorescence compared with the control (KY02111 alone) using a monkey ES cell line transfected with an αMHC promoter-driven GFP gene (Minami et al., Cell Reports 2, 1448-1460, 2012, which is incorporated herein by reference). The ES cell line was derived from a monkey ES cell line (cynomolgus monkey CMK6.4) by transfecting the cells with a vector which expresses green fluorescent protein (GFP) under control by a promoter of α-MHC gene (a marker of cardiac differentiation). The cells were plated at 4.0×10^5 cells per well in 6 well plates (Asahi Glass/5816-006: Ezview culture plates) and cultured for nine days in an IMDM-based medium for cardiac differentiation (200 ml IMDM medium (Sigma 13390), with 50 ml calf serum (GIBCO 10099-141), 2.5 ml MEM non-essential amino acid solution (Sigma M7145), 2.5 ml penicillin-streptomycin ([…]), 2.5 ml 200 mM L-glutamine, 2 ul 2-mercaptoethanol (Sigma M7522), and 255 ul 5N NaOH). Each test compound was added to the medium at different concentrations in the early phase (day 0 to day 3) and the late phase (day 4 to day 7) of cardiac differentiation. Cells obtained from the culture on day 9 were subjected to GFP fluorometry with a Metamorph imaging system. […]

[3] = system: monkey ES cell line transfected with an αMHC promoter-driven GFP gene; assay: as above; type: cell-based, cynomolgus monkey; conditions: 10 to 30 μM in late phase, alone or in combination with KY02111 (10 μM in late phase); FIG. 1d
[4] = Induction of cardiac differentiation by a procedure as described in the Examples in WO 2012/026491; type: cell-based
IMR90-1 = assay: Count of differentiated cardiomyocytes after culture under PFCD condition; type: cell-based, human; conditions: IMR90-1, PFCD suspension culture, day 14; FIG. 3d
Excerpt: The differentiated cardiomyocytes was counted in the cell population from suspension or adhesion culture under PFCD condition of the pluripotent stem cell lines. The counts of differentiated cells per 2×10^6 undifferentiated cells are shown in the graph of FIG. 2d. The differentiation was more induced by suspension culture than adhesion culture in most of the stem cell lines. The cell count, as well as the flow cytometry, was taken on day 14.
To determine the contribution of each of the six compounds (CHIR99021, PMA, KY03-I, XAV939, AG1478, and A419259) to PFCD under suspension culture condition, IMR90-1 (from culture on MEF feeder) was cultured in media to which different combinations of five of the compounds were added. Cells from the culture were analyzed by flow cytometry using a cTnT antibody for staining. A part of the cells from culture were not treated with the primary antibody to serve as a negative control. Thirty thousand cells from each sample were loaded to a flow cytometer FACSCantoII.
The differentiated cardiomyocytes was counted in a cultured cell population corresponding to that of FIG. 3c. […] The cell count, as well as the flow cytometry, was taken on day 14.

[5] = test compound 0.3 μM in Early phase (day 0 to day 3), 10 μM KY02111 in late phase
[6] = test compound 0.3 μM in Late phase (day 4 to day 7) with 10 μM KY02111
[7] = test compound 1 μM in Early phase (day 0 to day 3), 10 μM KY02111 in late phase
[8] = test compound 1 μM in Late phase (day 4 to day 7) with 10 μM KY02111
[9] = test compound 3 μM in Early phase (day 0 to day 3), 10 μM KY02111 in late phase
[10] = test compound 3 μM in Late phase (day 4 to day 7) with 10 μM KY02111
[11] = test compound 10 μM in Early phase (day 0 to day 3), 10 μM KY02111 in late phase
[12] = test compound 10 μM in Late phase (day 4 to day 7) with 10 μM KY02111

| SMILES | intensity of GFP fluorescence relative to control culture (KY02111 only, assigned to one) [2, 5] | intensity of GFP fluorescence relative to control culture (KY02111 only, assigned to one) [2, 6] | intensity of GFP fluorescence relative to control culture (KY02111 only, assigned to one) [2, 7] | intensity of GFP fluorescence relative to control culture (KY02111 only, assigned to one) [2, 8] | intensity of GFP fluorescence relative to control culture (KY02111 only, assigned to one) [2, 9] | intensity of GFP fluorescence relative to control culture (KY02111 only, assigned to one) [2, 10] | intensity of GFP fluorescence relative to control culture (KY02111 only, assigned to one) [2, 11] | intensity of GFP fluorescence relative to control culture (KY02111 only, assigned to one) [2, 12] | other results |
| --- | --- | --- | --- | --- | --- | --- | --- | --- | --- |
| COc1cc2ncnc(Nc3cccc(Cl)c3)c2cc1OC [AG1478] | 0.97 | 1.24 | 0.89 | 1.53 | 0.35 | 2.03 | 0.05 | 3.24 | expression level of NODAL [1]: not significantly different; expression of MSGN1, T and MIXL1 [1]: reduced; cardiac differentiation (screening conclusion) [2]: promoted; increase of cardiac differentiation [3]: two- to three-fold |
| CN1CCN(C2CCC(n3cc(-c4ccc(Oc5ccccc5)cc4)c4c(N)ncnc43)CC2)CC1 (centres unmarked) [A419259] | 0.15 | 1.7 | 0.01 | 5.56 | 0 | 4.8 | 0 | 0.32 | expression level of NODAL [1]: not significantly different; expression of MSGN1, T and MIXL1 [1]: reduced; increase of cardiac differentiation [2]: two- to five-fold; cardiac differentiation (screening conclusion) [2]: promoted |
| CCCOc1ccc(CCC(=O)Nc2nc3ccc(I)cc3s2)cc1OC [SO2077, 2-(3-(3-methoxy-4-propoxyphenyl)propanamido)-6-iodobenzothiazole] | – | – | – | – | – | – | – | – | effect of inducing cardiac differentiation [4]: found to have the effect of inducing cardiac differentiation |
| Oc1nc(-c2ccc(C(F)(F)F)cc2)nc2c1CSCC2 [XAV939] | – | – | – | – | – | – | – | – | expression level of NODAL [1]: not significantly different; expression of MSGN1, T and MIXL1 [1]: reduced |
| COc1ccc(CCCC(=O)Nc2nc3ccc(I)cc3s2)cc1OC [KY03-I, 2-(4-(3,4-dimethoxyphenyl)propanamido)-6-iodobenzothiazole] | – | – | – | – | – | – | – | – | expression level of NODAL [1]: not significantly different; expression of MSGN1, T and MIXL1 [1]: reduced; effect of inducing cardiac differentiation [4]: found to have the effect of inducing cardiac differentiation |
| COc1ccc(CCC(=O)Nc2nc3ccc(I)cc3s2)cc1OC [KY02-I, 2-(3-(3,4-dimethoxyphenyl)propanamido)-6-iodobenzothiazole] | – | – | – | – | – | – | – | – | effect of inducing cardiac differentiation [4]: found to have the effect of inducing cardiac differentiation |
| Cc1c[nH]c(-c2cnc(NCCNc3ccc(C#N)cn3)nc2-c2ccc(Cl)cc2Cl)n1 [CHIR99021] | – | – | – | – | – | – | – | – | expression of the mesoderm-related genes (MSGN1, T, MIXL1 and NODAL) vs DMSO control ([1]; 2 μM CHIR99021 or 0.3 μM PMA alone, day 0 to day 2, mRNA on day 2, FIG. 3e): significantly increased; cardiomyocyte count on omission of the compound from the six-compound culture (IMR90-1): significant reduction |
| COc1ccc(CC(=O)Nc2nc3ccc(I)cc3s2)cc1OC [KY01-I, 2-(2-(3,4-dimethoxyphenyl)acetamido)-6-iodobenzothiazole] | – | – | – | – | – | – | – | – | effect of inducing cardiac differentiation [4]: found to have the effect of inducing cardiac differentiation |
| COc1cc2ncnc(Nc3ccc(F)c(Cl)c3)c2cc1OCCCN1CCOCC1 [gefitinib] | – | – | – | – | – | – | – | – | increase of cardiac differentiation [3]: two- to three-fold |
| CNC(=O)c1ccccc1Sc1ccc2c(/C=C/c3ccccn3)n[nH]c2c1 [Axitinib] | 0.64 | 0.95 | 0.02 | 0.25 | 0 | 0.05 | 0 | 0 | – |
| O=C1NC(=O)/C(=C\c2ccc3nccnc3c2)S1 [AS605240] | 0.65 | 1.31 | 0.84 | 0.9 | 0.32 | 1.22 | 0 | 0.55 | – |
| CN(C)S(=O)(=O)c1ccc2c(c1)/C(=C/c1cc3c([nH]1)CCCC3)C(=O)N2 [SU6656] | – | – | – | – | – | – | – | – | increase of cardiac differentiation [2]: two- to five-fold |
| N#C/C(=C/c1ccc(O)c(O)c1)C(=O)NCc1ccccc1 [AG490] | 1.5 | 0.92 | 0.59 | 1 | 0.79 | 1.1 | 0.72 | 1.33 | – |
| COc1cc([C@@H]2c3cc4c(cc3[C@H](O)[C@H]3COC(=O)[C@@H]23)OCO4)cc(OC)c1OC [PPP] | 0.2 | 0.39 | 0 | 0.2 | 0 | 0 | 0 | 0 | – |

From patent publication US10233426B2, “Method for inducing cardiac differentiation of pluripotent stem cell with low-molecular compounds” (KYOTO UNIVERSITY, priority 2014, dated 2019)
